Molecular target: T1, PatA/PatB (Streptococcus pneumoniae, UniProt Q8DN70+Q8DN72)
T1 construct: gene ABC-NP; full heterodimer co-expressed from pETDuet-1-PatA/PatB in E. coli C41(DE3), BL21(DE3), T7 express or Lemo21(DE3); His-tagged; inverted membrane vesicles, or purified in LMNG / proteoliposomes
Experiment: fluorescence transport assay, inverted membrane vesicles
Format: biochemical
Details: 1 µM Hoechst 33342, 2 mM GTP, 2 mM MgCl2, pH 8.0, 25 °C; transported drug

T1 sequence (Q8DN70 entry or part of it): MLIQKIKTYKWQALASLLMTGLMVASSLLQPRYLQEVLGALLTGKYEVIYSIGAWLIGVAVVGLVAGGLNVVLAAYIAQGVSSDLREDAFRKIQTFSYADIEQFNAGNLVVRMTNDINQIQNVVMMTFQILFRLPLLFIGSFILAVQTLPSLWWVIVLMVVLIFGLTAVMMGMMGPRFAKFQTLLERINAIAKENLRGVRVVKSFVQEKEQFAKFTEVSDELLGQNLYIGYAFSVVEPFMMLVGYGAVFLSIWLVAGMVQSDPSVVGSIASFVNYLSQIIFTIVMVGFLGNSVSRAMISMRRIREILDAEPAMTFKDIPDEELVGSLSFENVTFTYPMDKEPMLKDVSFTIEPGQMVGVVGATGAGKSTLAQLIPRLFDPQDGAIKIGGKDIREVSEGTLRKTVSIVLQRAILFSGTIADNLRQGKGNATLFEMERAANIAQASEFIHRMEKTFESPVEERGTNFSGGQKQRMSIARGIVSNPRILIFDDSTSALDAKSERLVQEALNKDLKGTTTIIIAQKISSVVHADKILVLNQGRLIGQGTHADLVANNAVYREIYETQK
T1 sequence (Q8DN72 entry or part of it): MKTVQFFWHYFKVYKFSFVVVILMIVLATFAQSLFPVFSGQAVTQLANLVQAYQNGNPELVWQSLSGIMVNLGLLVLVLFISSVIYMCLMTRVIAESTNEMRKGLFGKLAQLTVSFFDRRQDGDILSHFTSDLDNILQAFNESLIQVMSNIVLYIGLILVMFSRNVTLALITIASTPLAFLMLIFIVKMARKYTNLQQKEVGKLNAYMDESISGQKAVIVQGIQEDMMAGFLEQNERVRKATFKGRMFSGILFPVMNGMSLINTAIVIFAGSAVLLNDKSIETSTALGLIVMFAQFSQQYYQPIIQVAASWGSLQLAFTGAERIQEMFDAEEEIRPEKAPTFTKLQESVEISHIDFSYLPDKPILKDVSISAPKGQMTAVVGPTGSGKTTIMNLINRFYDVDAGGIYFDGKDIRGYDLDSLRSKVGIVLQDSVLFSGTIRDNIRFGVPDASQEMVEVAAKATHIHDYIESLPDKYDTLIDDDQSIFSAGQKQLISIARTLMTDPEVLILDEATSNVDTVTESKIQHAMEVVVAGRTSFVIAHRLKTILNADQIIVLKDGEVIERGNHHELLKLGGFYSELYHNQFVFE

CCOc1ccc(-c2nc3ccc(-c4nc5ccc(N6CCN(C)CC6)cc5[nH]4)cc3[nH]2)cc1 [Hoechst 33342, 2-(4-ethoxyphenyl)-5-(4-methyl-1-piperazinyl)-2,5-bis-1H-benzimidazole]
fluorescence transport assay, inverted membrane vesicles: a fluorescent drug translocated by PatA/PatB
